The IC50 is the concentration that inhibits the measured activity by half.

The target of the experiment is T1, recombinant human DPP-1 (Cathepsin C) (Homo sapiens, UniProt P53634).
T1 construct: made in house
T1 sequence (P53634 25-463): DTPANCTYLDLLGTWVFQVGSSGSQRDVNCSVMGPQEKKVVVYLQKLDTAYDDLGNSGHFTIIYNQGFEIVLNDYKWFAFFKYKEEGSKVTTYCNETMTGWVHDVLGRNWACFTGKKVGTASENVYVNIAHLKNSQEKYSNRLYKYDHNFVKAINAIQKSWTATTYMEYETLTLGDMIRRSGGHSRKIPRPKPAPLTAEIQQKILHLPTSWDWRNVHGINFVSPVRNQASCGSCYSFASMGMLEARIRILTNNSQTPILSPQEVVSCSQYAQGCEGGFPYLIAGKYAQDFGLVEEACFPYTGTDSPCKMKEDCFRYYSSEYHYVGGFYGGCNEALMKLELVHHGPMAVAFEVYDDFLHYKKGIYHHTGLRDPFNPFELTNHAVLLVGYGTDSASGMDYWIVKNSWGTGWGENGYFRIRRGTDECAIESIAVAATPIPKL
As to the kind of experiment: DPP-1 Inhibition Assay (In Vitro), fluorogenic substrate GR-AMC. It counts as biochemical. As to conditions: room temperature; 0.15 nM DPP-1, 10 uM GR-AMC, pH 7.0; average where tested multiple times. On the procedure: Test compounds were assessed for DPP-1 (Cathepsin C) inhibitory activity using a fluorogenic substrate, GR-AMC (Glycine-Arginine-amino-4-methylcoumarin, Bachem, 1-1215). The amount of amino-methylcoumarin released is proportional to the DPP-1 activity, and the reaction is monitored kinetically with a Molecular Devices plate reader using black 96-well plates.
All compounds were tested under room temperature conditions. The assay buffer consisted of 50 mM HEPES, pH 7.0, 100 mM NaCl, 2 mM glutathione (GSH), and 0.002% TWEEN 20. GSH and TWEEN 20 were added to the buffer fresh daily. Just prior to use, an in-house preparation of recombinant human DPP-1 (240 μM stock, MW 49.6 kD) was diluted 600-fold in assay buffer containing fresh 2 mM dithiothreitol (DTT) to activate the enzyme, then diluted into assay buffer (without DTT) 133-fold for a DPP-1 working solution of 3 nM. Test compounds were diluted in DMSO for 20× their final assay concentrations.
Additions to a 96-well black Costar 3915 plates were as follows: 90 μL of 11 μM GR-AMC, 5 μL test compound (followed by mixing), and 5 μL 3 nM DPP1 to start the reaction. Fluorescent reactions were monitored kinetically at 360 nm excitation, 440 nm emission on a Molecular Devices Spectramax XPS reader. The Softmax Pro software of the reader determined the initial velocity of the selected data (the first 3-5 minutes of the reaction), and the best linear regression fit of the initial kinetic data. Final assay conditions were 0.15 nM DPP-1, 10 uM GR-AMC, 50 mM HEPES, pH 7.0, 100 mM NaCl, 2 mM GSH, 0.002% TWEEN 20, 1 uM DTT, 5.0% DMSO. Initial velocity rates were plotted vs. test compound concentration by use of a four-parameter logistics equation (nonlinear regression, sigmoidal dose-response (variable slope), with fixed Hill (1.0) using GraphPad Prism® software for determination of DPP-1 IC50. Within-run assay coefficient of variation (CV) was generally <10%; between-run CV <20%.
Representative compounds of the present invention were tested according to the procedure as described above, with results as listed in Table 2, below. Additionally, Table 2 below lists the measured mass for said representative compounds of the present invention, more particularly the mass of the MH^+ ion.
For `CC[C@H](N)C(=O)NCCCC#Cc1cc(C)ccc1C` [Compound 77], the IC50 worked out at 33 µM.
Then `CC[C@H](N)C(=O)NCCCC#Cc1ccc2c(c1)Cc1ccccc1-2` [Compound 101], with 1.7 µM; and `CC[C@H](N)C(=O)NCCCC#Cc1ccc(S(C)(=O)=O)cc1` [Compound 56, (S)-2-amino-N-(5-(4-(methylsulfonyl)phenyl)pent-4-ynyl)butanamide], with 18 µM.
In the case of `CCC[C@H](N)C(=O)NCCCC#Cc1cccc(OC2CCNCC2)c1` [Compound 18, (S)-2-amino-N-(5-(3-(piperidin-4-yloxy)phenyl)pent-4-ynyl)pentanamide] it was 1.7 µM; in that of `CC(C)C[C@H](N)C(=O)NCCCC#Cc1cccc(OC2CCNCC2)c1` [Compound 31], 30 µM.
Then `CC[C@@H](N)C(=O)NCCCC#Cc1cccc(OC2CCNCC2)c1` [Compound 71], with > 100 µM; and `CC[C@H](N)C(=O)NCCCC#Cc1cccc(F)c1F` [Compound 102], with 6.1 µM.
As to `CC[C@H](N)C(=O)NCCCC#Cc1ccc(F)c2ccccc12` [Compound 84], the IC50 came out at 7.2 µM.
As to `CC[C@H](N)C(=O)NCCCC#Cc1ccccc1C1CCCCC1` [Compound 75], the IC50 came out at 39 µM.
Turning to `CC[C@H](N)C(=O)NCCCC#Cc1ccccc1C(F)(F)F` [Compound 74], the IC50 came out at 26 µM.
Then `CC[C@H](N)C(=O)NCCCC#Cc1cccc2cnccc12` [Compound 82], with 17 µM; and `C#CC[C@H](N)C(=O)NCCC#Cc1cccc(OC2CCNCC2)c1` [Compound 6, (S)-2-amino-N-(4-(3-(piperidin-4-yloxy)phenyl)but-3-ynyl)pent-4-ynamide], with 2.43 µM.
In the case of `CC[C@H](N)C(=O)NCCCC#Cc1c(O)ccc2ccccc12` [Compound 105] it was > 10 µM; in that of `CC[C@H](N)C(=O)NCCCC#Cc1ccc2sccc2c1` [Compound 60], 6 µM; in that of `CC[C@H](N)C(=O)NCCCC#Cc1c(C)c(C)cc(C)c1C` [Compound 76], 14 µM.
Regarding `CC[C@H](N)C(=O)NCCCC#Cc1c(OC)ccc2ccccc12` [Compound 87], the IC50 came to 13 µM.
In the case of `CC[C@H](N)C(=O)NCCCC#Cc1c(C)cc(C)cc1C` [Compound 55], the IC50 came to 9.5 µM.
Turning to `CC[C@H](N)C(=O)NCCCC#Cc1ccc(C(C)C)cc1` [Compound 95], the IC50 amounted to 1.2 µM.
In the case of `CC[C@H](N)C(=O)NCCCC#Cc1ccc(C(F)(F)F)cc1` [Compound 58], the IC50 turned out to be 11 µM.
With `CC[C@H](N)C(=O)NCCCC#Cc1cccc(O[C@H]2CCCNC2)c1` [Compound 80, (S)-2-amino-N-(5-(3-((S)-piperidin-3-yloxy)phenyl)pent-4-ynyl)butanamide], the IC50 is 2.3 µM.
In the case of `N[C@@H](Cn1cccn1)C(=O)NCCCC#Cc1cccc(OC2CCNCC2)c1` [Compound 19, (S)-2-amino-N-(5-(3-(piperidin-4-yloxy)phenyl)pent-4-ynyl)-3-(1H-pyrazol-1-yl)propanamide] it was 9.1 µM; in that of `CC[C@@H](N)C(=O)NCCCC#Cc1cccc(OC)c1` [Compound 92], 17 µM; in that of `CC[C@H](N)C(=O)NCCCC#Cc1cc(OC)cc(OC)c1` [Compound 59], 12 µM.
As to `CC[C@H](N)C(=O)NCCCC#Cc1ccccc1-c1ccccc1` [Compound 61], the IC50 stood at 6.8 µM.
On to `N[C@@H](CCO)C(=O)NCCCC#Cc1cccc(OC2CCNCC2)c1` [Compound 15, (S)-2-amino-4-hydroxy-N-(5-(3-(piperidin-4-yloxy)phenyl)pent-4-ynyl)butanamide], for which the half-maximal inhibitory concentration (IC50) stood at 2.5 µM.
For `CC[C@H](N)C(=O)NCCCC#Cc1ccc2c(c1)OCCO2` [Compound 97], the IC50 was 5 µM.
For the compound `CC[C@H](N)C(=O)NCCCC#Cc1ccccc1OC` [Compound 99], the IC50 is 12 µM.
As for `CC[C@H](N)C(=O)NCCCC#Cc1ccc2ccccc2c1` [Compound 73], the IC50 was 15 µM.
On to `CCCC[C@H](N)C(=O)NCCCC#Cc1cccc(OC2CCNCC2)c1` [Compound 12], for which the IC50 came to 5.92 µM.
As for `C#CC[C@H](N)C(=O)NCCCC#Cc1cccc(O[C@@H]2CCCNC2)c1` [Compound 79, (S)-2-amino-N-(5-(3-((R)-piperidin-3-yloxy)phenyl)pent-4-ynyl)pent-4-ynamide], the IC50 was determined as 2.9 µM.
In the case of `C#CC[C@H](N)C(=O)NCCCC#Cc1cc(OC)cc(OC2CCNCC2)c1` [Compound 7, (S)-2-amino-N-(5-(3-methoxy-5-(piperidin-4-yloxy)phenyl)pent-4-ynyl)pent-4-ynamide] it was 1.6 µM; in that of `C#CC[C@H](N)C(=O)NCCCC#Cc1cccc(OC2CCNCC2)c1` [Compound 3, (S)-2-amino-N-(5-(3-(piperidin-4-yloxy)phenyl)pent-4-ynyl)pent-4-ynamide], 0.39 µM.
As to `CC[C@H](N)C(=O)NCCCC#Cc1ccc(NC(C)=O)cc1` [Compound 100], the IC50 is 6.3 µM.
Take `CC[C@H](N)C(=O)NCCCC#Cc1c(C)cccc1C` [Compound 49]: the IC50 was 3.28 µM.
Consider `CC[C@H](N)C(=O)NCCCC#Cc1ccc(F)c(F)c1` [Compound 39], for which the IC50 is 0.35 µM.
As to `NCCC[C@H](N)C(=O)NCCCC#Cc1cccc(OC2CCNCC2)c1` [Compound 13], the IC50 was found to be 98 µM.
`CC[C@H](N)C(=O)NCCCC#Cc1cccc(OC)c1` [Compound 35]: the half-maximal inhibitory concentration (IC50) is 5.8 µM.
Turning to `N[C@@H](Cc1cccnc1)C(=O)NCCCC#Cc1cccc(OC2CCNCC2)c1` [Compound 33], the IC50 stood at 15 µM.
As to `N[C@@H](Cc1c[nH]cn1)C(=O)NCCCC#Cc1cccc(OC2CCNCC2)c1` [Compound 20], the IC50 came out at 0.52 µM.
As for `CC[C@H](N)C(=O)NCCCC#Cc1ccc(OCc2ccccc2)cc1` [Compound 86], the IC50 worked out at 2.4 µM.
In the case of `CC[C@H](N)C(=O)NCCCC#Cc1cccc2ccccc12` [Compound 41] it was 2.53 µM; in that of `N[C@@H](Cc1cccs1)C(=O)NCCCC#Cc1cccc(OC2CCNCC2)c1` [Compound 63, (S)-2-amino-N-(5-(3-(piperidin-4-yloxy)phenyl)pent-4-ynyl)-3-(thiophen-2-yl)propanamide], 0.15 µM.
As for `CC[C@H](N)C(=O)NCCCC#Cc1ccccc1O` [Compound 104], the IC50 turned out to be 8 µM.
As to `CC[C@H](N)C(=O)NCCCC#Cc1ccccc1NC(C)=O` [Compound 103], the IC50 stood at 5.4 µM.
Take `C=CCC[C@H](N)C(=O)NCCCC#Cc1cccc(OC2CCNCC2)c1` [Compound 8]: the IC50 is 1.64 µM.
For the compound `N[C@@H](Cc1ccccc1)C(=O)NCCCC#Cc1cccc(OC2CCNCC2)c1` [Compound 1], the IC50 turned out to be 15.3 µM.
Consider `CC[C@H](N)C(=O)NCCCC#Cc1ccc2c(c1)OCO2` [Compound 51], for which the half-maximal inhibitory concentration (IC50) came out at 15 µM.
With `CC[C@H](N)C(=O)NCCCC#Cc1ccc(C)c2ccccc12` [Compound 83], the IC50 came to 8.5 µM.
As to `CC[C@H](N)C(=O)NCCCC#Cc1ccc(OC)c(OC)c1` [Compound 57], the IC50 stood at 17 µM.
As to `CC[C@H](N)C(=O)NCCCC#Cc1ccccc1` [Compound 98], the IC50 stood at 7.9 µM.
Turning to `CC[C@H](N)C(=O)NCCCC#Cc1cccc(O[C@@H]2CCCNC2)c1` [Compound 78, (S)-2-amino-N-(5-(3-((R)-piperidin-3-yloxy)phenyl)pent-4-ynyl)butanamide], the IC50 was 3.9 µM.
Then `CC(C)[C@H](N)C(=O)NCCCC#Cc1cccc(OC2CCNCC2)c1` [Compound 16, (S)-2-amino-3-methyl-N-(5-(3-(piperidin-4-yloxy)phenyl)pent-4-ynyl)butanamide], with 12.8 µM; and `CC[C@H](N)C(=O)NCCCC#Cc1cncc2ccccc12` [Compound 89], with 7.9 µM.
Regarding `CC[C@H](N)C(=O)NCCCC#Cc1c(F)ccc2ccccc12` [Compound 106], the IC50 was determined as 6 µM.
For `CC[C@H](N)C(=O)NCCCC#Cc1ccc(OC)cc1` [Compound 40], the IC50 worked out at 0.214 µM.
In the case of `CC[C@H](N)C(=O)NCCCC#Cc1ccc(-c2ccccc2)cc1` [Compound 81] it was 5.6 µM.
Take `N[C@@H](CC1CC1)C(=O)NCCCC#Cc1cccc(OC2CCNCC2)c1` [Compound 11]: the half-maximal inhibitory concentration (IC50) is 15.3 µM.
Regarding `C#CC[C@H](N)C(=O)NCCCC#Cc1cccc(O[C@H]2CCCNC2)c1` [Compound 85, (S)-2-amino-N-(5-(3-((S)-piperidin-3-yloxy)phenyl)pent-4-ynyl)pent-4-ynamide], the IC50 was 1.2 µM.
On to `N[C@@H](Cc1ccccn1)C(=O)NCCCC#Cc1cccc(OC2CCNCC2)c1` [Compound 90], for which the IC50 turned out to be 12 µM.
